Assay results: paper PMC10794144, “A novel antibiotic class targeting the lipopolysaccharide transporter” (Nature, 2024)
Values after ≈ are worked out from the molar mass of the structure shown. Where two headings read alike, the source gives them in different places.

Columns and labels:
Beta1-adrenoreceptor = molecular target: T1, Beta1-adrenoreceptor (Homo sapiens, UniProt P08588); assay: Off-target screening (CEREP); type: binding; conditions: read-out: percent inhibition
T1 construct: purchased Eurofins CEREP SA
T1 sequence (P08588 whole entry): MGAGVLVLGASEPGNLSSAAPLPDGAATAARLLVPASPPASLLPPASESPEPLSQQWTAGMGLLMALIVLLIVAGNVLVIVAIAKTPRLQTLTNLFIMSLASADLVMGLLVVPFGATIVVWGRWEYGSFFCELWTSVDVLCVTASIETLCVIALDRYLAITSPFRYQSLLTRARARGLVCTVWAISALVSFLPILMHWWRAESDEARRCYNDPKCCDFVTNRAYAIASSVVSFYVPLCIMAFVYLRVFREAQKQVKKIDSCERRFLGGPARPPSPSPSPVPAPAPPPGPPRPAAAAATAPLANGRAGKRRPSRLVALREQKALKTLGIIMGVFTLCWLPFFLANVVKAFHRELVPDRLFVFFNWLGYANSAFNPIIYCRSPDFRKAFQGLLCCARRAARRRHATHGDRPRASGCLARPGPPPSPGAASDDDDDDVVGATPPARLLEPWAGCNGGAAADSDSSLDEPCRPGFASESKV
Experimental: (§1) Supplementary Table 1 │ Off-target activity screening f or MCP compou nds […]
(§2) The assays given in the table above were conducted at Eurofins CEREP S A (Celle-Lévescault, France) and were run as single point measurements in duplicates in the presence of 10 µ M of the test compound and reported as percent inhibition of the radioligand signal or control enzymatic activity. n.d., not

[1] = molecular target: T2, Angiotensin II receptor 1 (Homo sapiens, UniProt P30556); assay: Off-target screening (CEREP); type: binding; conditions: read-out: percent inhibition
T2 construct: purchased Eurofins CEREP SA
T2 sequence (P30556 1-359): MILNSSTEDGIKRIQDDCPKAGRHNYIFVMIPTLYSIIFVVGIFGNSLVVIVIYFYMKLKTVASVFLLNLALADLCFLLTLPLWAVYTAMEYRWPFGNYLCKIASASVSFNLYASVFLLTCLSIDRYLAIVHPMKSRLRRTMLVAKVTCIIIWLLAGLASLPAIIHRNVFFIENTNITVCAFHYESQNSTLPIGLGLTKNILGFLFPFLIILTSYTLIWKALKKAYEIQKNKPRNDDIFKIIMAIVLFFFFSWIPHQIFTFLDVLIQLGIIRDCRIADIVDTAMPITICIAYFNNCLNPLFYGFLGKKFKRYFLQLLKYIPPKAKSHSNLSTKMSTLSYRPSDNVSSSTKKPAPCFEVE
Experimental: as §1, §2

Muscarinic receptor M2 = molecular target: T3, Muscarinic receptor M2 (Homo sapiens, UniProt P08172); assay: Off-target screening (CEREP); type: binding; conditions: read-out: percent inhibition
T3 construct: purchased Eurofins CEREP SA
T3 sequence (P08172 1-466): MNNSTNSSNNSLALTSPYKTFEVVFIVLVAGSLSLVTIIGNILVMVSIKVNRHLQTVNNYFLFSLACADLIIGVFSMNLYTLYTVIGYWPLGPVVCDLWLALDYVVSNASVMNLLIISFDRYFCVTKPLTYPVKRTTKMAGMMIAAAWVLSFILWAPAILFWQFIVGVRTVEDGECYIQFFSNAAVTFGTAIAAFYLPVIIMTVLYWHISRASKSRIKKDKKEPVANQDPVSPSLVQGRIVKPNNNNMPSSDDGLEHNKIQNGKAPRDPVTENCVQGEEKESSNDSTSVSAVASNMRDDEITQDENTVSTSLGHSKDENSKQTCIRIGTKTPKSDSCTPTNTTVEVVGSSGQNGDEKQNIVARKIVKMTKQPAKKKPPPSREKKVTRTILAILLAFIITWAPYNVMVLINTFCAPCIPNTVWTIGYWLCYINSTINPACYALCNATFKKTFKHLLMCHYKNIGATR
Experimental: as §1, §2

Dopamine D2 receptor = molecular target: T4, Dopamine D2 receptor (Homo sapiens, UniProt P14416); assay: Off-target screening (CEREP); type: binding; conditions: read-out: percent inhibition
T4 construct: purchased Eurofins CEREP SA
T4 sequence (P14416 whole entry): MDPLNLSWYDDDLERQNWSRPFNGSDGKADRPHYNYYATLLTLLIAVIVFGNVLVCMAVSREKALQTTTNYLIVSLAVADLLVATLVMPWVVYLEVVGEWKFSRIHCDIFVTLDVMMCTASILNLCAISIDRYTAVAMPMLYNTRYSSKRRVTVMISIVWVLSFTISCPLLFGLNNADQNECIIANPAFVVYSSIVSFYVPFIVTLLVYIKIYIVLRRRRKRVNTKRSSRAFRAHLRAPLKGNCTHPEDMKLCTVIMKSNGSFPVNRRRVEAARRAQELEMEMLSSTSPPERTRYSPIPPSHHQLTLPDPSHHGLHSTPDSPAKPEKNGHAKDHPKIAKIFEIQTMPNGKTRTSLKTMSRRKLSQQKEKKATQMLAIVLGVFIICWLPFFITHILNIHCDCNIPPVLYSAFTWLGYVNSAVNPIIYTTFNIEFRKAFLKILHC
Experimental: as §1, §2

Adenosine A3 respetor = molecular target: T5, Adenosine A3 respetor (Homo sapiens, UniProt P0DMS8); assay: Off-target screening (CEREP); type: binding; conditions: read-out: percent inhibition
T5 construct: purchased Eurofins CEREP SA
T5 sequence (P0DMS8 1-318): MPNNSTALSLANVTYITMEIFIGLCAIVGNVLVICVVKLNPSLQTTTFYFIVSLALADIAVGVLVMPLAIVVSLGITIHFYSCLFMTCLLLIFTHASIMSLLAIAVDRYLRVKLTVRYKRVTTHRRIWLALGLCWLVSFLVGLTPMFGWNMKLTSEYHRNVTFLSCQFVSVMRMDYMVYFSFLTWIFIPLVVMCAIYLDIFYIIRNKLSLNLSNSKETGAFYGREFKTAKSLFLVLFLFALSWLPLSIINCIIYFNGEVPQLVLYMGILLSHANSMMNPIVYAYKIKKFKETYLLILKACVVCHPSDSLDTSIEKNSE
Experimental: as §1, §2

5HT3 = molecular target: T6, 5HT3 (Homo sapiens, UniProt P46098); assay: Off-target screening (CEREP); type: binding; conditions: read-out: percent inhibition
T6 construct: purchased Eurofins CEREP SA
T6 sequence (P46098 24-478): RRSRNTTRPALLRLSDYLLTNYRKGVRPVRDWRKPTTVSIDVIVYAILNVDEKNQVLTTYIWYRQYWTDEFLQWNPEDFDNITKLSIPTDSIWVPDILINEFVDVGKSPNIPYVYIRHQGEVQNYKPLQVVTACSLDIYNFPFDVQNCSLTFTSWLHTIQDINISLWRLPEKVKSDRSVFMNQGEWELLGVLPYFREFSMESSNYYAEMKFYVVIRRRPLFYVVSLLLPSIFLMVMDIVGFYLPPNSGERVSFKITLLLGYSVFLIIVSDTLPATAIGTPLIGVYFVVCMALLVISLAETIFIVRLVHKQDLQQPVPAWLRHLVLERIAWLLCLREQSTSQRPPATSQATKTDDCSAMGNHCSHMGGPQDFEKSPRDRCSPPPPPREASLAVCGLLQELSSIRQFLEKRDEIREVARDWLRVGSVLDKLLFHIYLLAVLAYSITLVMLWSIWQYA
Experimental: as §1, §2

Cannabinoid receptor CB1 = molecular target: T7, Cannabinoid receptor CB1 (Homo sapiens, UniProt P21554); assay: Off-target screening (CEREP); type: binding; conditions: read-out: percent inhibition
T7 construct: purchased Eurofins CEREP SA
T7 sequence (P21554 whole entry): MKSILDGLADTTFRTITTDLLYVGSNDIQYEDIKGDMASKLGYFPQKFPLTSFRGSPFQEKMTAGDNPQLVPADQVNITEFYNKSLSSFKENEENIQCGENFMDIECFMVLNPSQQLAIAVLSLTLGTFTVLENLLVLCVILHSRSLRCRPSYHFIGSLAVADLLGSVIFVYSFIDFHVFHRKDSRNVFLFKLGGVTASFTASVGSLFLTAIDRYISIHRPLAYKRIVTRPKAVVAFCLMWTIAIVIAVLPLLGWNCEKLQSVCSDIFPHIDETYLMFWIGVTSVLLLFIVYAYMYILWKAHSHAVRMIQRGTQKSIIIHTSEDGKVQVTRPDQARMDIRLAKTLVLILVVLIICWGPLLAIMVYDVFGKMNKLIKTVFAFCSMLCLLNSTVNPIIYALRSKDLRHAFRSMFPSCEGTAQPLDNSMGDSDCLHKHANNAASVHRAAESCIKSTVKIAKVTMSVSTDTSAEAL
Experimental: as §1, §2

C. albicans ATCC 90028 = conditions: for RO7223280 MIC 100%: C. albicans ATCC 90028, read at 100%
A. baumannii = assay: Neutropaenic mouse thigh infection model; type: in vivo; conditions: for Bacterial Load (average): A. baumannii ACC01085, neutropenic mice, summary table, same as average Log CFU/Thigh
Experimental: An intramuscular inoculation of a bacterial suspension of approximately 10^6 CFU per thigh was used to induce the infection. Treatment started 2 h after infection. […] In the pneumonia model, an intratracheal inoculation of approximately 10^7 CFU per lung was used to induce the infection. Treatment started 2 h after infection. […] Standard of care antibiotic was tested at a single dose in both infection models. GraphPad Prism 8 was used for graphical presentation and to analyse data.

## CN1C(=O)[C@H](CCCN)NC(=O)[C@H](CCCN)NCc2ccccc2Sc2ccccc2CNC(=O)[C@@H]1Cc1c[nH]c2ccccc12 [RO7036668]
Beta1-adrenoreceptor; 10 µM, duplicates
  inhibition at 10 µM: 12%
[1]; 10 µM, duplicates
  inhibition at 10 µM: 14%
Muscarinic receptor M2; 10 µM, duplicates
  inhibition at 10 µM: 14%
Dopamine D2 receptor; 10 µM, duplicates
  inhibition at 10 µM: 74%
Adenosine A3 respetor; 10 µM, duplicates
  inhibition at 10 µM: 32%
5HT3; 10 µM, duplicates
  inhibition at 10 µM: 6%
Cannabinoid receptor CB1; 10 µM, duplicates
  inhibition at 10 µM: -26%

## CN1C(=O)[C@H](CCCCN)NC(=O)[C@H](CCCN)NCc2cccnc2Sc2c(Cl)ccc(Cl)c2CNC(=O)[C@@H]1Cc1c[nH]c2ccccc12 [RO7075573]
C. albicans ATCC 90028; Study LGC281440
  MIC 100%: 64 µg/mL (≈ 86.5 µM)
C. albicans ATCC 90028; Study LGC282160
  MIC 100%: >64 µg/mL
C. albicans ATCC 90028; Study LGC284879
  MIC 100%: >64 µg/mL
C. albicans ATCC 90028; Study LGC285582
  MIC 100%: >64 µg/mL
C. albicans ATCC 90028; Study LGC286210
  MIC 100%: >64 µg/mL
C. albicans ATCC 90028; Study LGC293598
  MIC 100%: >64 µg/mL
C. albicans ATCC 90028; Study LGC294355
  MIC 100%: >64 µg/mL
C. albicans ATCC 90028; Study LGC295147
  MIC 100%: >64 µg/mL
C. albicans ATCC 90028; Study LGC296813
  MIC 100%: >64 µg/mL
C. albicans ATCC 90028; Study LGC299544
  MIC 100%: >64 µg/mL
C. albicans ATCC 90028; Study LGC301026
  MIC 100%: >64 µg/mL
C. albicans ATCC 90028; Study LGC308175
  MIC 100%: >64 µg/mL
C. albicans ATCC 90028; Study ROC010
  MIC 100%: >64 µg/mL
C. albicans ATCC 90028; Study ROC012
  MIC 100%: >64 µg/mL
Beta1-adrenoreceptor
  inhibition at 10 µM: -2%
[1]
  inhibition at 10 µM: -7%
Muscarinic receptor M2
  inhibition at 10 µM: 11%
Dopamine D2 receptor
  inhibition at 10 µM: 28%
Adenosine A3 respetor
  inhibition at 10 µM: 11%
5HT3
  inhibition at 10 µM: 8%
Cannabinoid receptor CB1
  inhibition at 10 µM: -16%
A. baumannii; ACC00535, neutropaenic mice, s.c. every 4 h for 24 h
  Decrease in thigh bacterial burden: > 4 log CFU

## CN1C(=O)[C@H](CCCCN)NC(=O)[C@H](CCCN)NCc2cccnc2Sc2c(Cl)ccc(-c3ccc(C(=O)O)cc3)c2CNC(=O)[C@@H]1Cc1c[nH]c2ccccc12 [RO7202110]
Beta1-adrenoreceptor; 10 µM, duplicates
  inhibition at 10 µM: -2%
[1]; 10 µM, duplicates
  inhibition at 10 µM: 14%
Muscarinic receptor M2; 10 µM, duplicates
  inhibition at 10 µM: -1%
Dopamine D2 receptor; 10 µM, duplicates
  inhibition at 10 µM: 28%
Adenosine A3 respetor; 10 µM, duplicates
  inhibition at 10 µM: 9%
5HT3; 10 µM, duplicates
  inhibition at 10 µM: 6%
Cannabinoid receptor CB1; 10 µM, duplicates
  inhibition at 10 µM: -24%

## C[C@@H](O)[C@H]1C(=O)N2C(C(=O)O)=C(S[C@@H]3CN[C@H](C(=O)N(C)C)C3)[C@H](C)[C@H]12 [meropenem, reference compound]
C. albicans ATCC 90028; Study LGC277937
  MIC 100%: >64 µg/mL
C. albicans ATCC 90028; Study LGC279800
  MIC 100%: >64 µg/mL
C. albicans ATCC 90028; Study LGC281440
  MIC 100%: >64 µg/mL
C. albicans ATCC 90028; Study LGC282160
  MIC 100%: >64 µg/mL
C. albicans ATCC 90028; Study LGC282623
  MIC 100%: >64 µg/mL
C. albicans ATCC 90028; Study LGC283932
  MIC 100%: >64 µg/mL
C. albicans ATCC 90028; Study LGC284200
  MIC 100%: >64 µg/mL
C. albicans ATCC 90028; Study LGC284879
  MIC 100%: >64 µg/mL
C. albicans ATCC 90028; Study LGC285582
  MIC 100%: >64 µg/mL
C. albicans ATCC 90028; Study LGC286210
  MIC 100%: >64 µg/mL
C. albicans ATCC 90028; Study LGC293598
  MIC 100%: >64 µg/mL
C. albicans ATCC 90028; Study LGC294355
  MIC 100%: >64 µg/mL
C. albicans ATCC 90028; Study LGC295147
  MIC 100%: >64 µg/mL
C. albicans ATCC 90028; Study LGC296813
  MIC 100%: >64 µg/mL
C. albicans ATCC 90028; Study LGC299544
  MIC 100%: >64 µg/mL
C. albicans ATCC 90028; Study LGC301026
  MIC 100%: >64 µg/mL
C. albicans ATCC 90028; Study LGC308175
  MIC 100%: >64 µg/mL
C. albicans ATCC 90028; Study ROC003
  MIC 100%: >64 µg/mL
C. albicans ATCC 90028; Study ROC004
  MIC 100%: >64 µg/mL
C. albicans ATCC 90028; Study ROC005
  MIC 100%: >64 µg/mL
C. albicans ATCC 90028; Study ROC006
  MIC 100%: >64 µg/mL
C. albicans ATCC 90028; Study ROC008
  MIC 100%: >64 µg/mL
C. albicans ATCC 90028; Study ROC009
  MIC 100%: >64 µg/mL
C. albicans ATCC 90028; Study ROC010
  MIC 100%: >64 µg/mL
C. albicans ATCC 90028; Study ROC013
  MIC 100%: >64 µg/mL
A. baumannii; A. baumannii ACC00535 (APV00535), neutropenic mice, MERO 100 mg/kg, 24 h, change of average log CFU/thigh vs vehicle at 24 h
  delta 24 hr: 0.67
A. baumannii; ACC00535, neutropaenic mice
  Thigh bacterial burden outcome: bacterial outgrowth

## CN1C(=O)[C@H](CCCCN)NC(=O)[C@H](CCCN)NCc2cccnc2Sc2cccc(-c3ccc(C(=O)O)cc3)c2CNC(=O)[C@@H]1Cc1c[nH]c2ccccc12 [zosurabalpin]
C. albicans ATCC 90028; Study LGC296813
  RO7223280 MIC 100%: >64 µg/mL
C. albicans ATCC 90028; Study LGC299544
  RO7223280 MIC 100%: >64 µg/mL
C. albicans ATCC 90028; Study LGC308175
  RO7223280 MIC 100%: >64 µg/mL
Beta1-adrenoreceptor
  inhibition at 10 µM: 10%
[1]
  inhibition at 10 µM: 6%
Muscarinic receptor M2
  inhibition at 10 µM: 17%
Dopamine D2 receptor
  inhibition at 10 µM: 14%
Adenosine A3 respetor
  inhibition at 10 µM: 2%
5HT3
  inhibition at 10 µM: 3%
Cannabinoid receptor CB1
  inhibition at 10 µM: -20%
A. baumannii; 6 mg/kg/day q6h, 24 h
  Bacterial Load (average): 8.75
A. baumannii; 20 mg/kg/day q6h, 24 h
  Bacterial Load (average): 7.85
A. baumannii; 60 mg/kg/day q6h, 24 h
  Bacterial Load (average): 7.41
A. baumannii; 100 mg/kg/day q6h, 24 h
  Bacterial Load (average): 6.21
A. baumannii; 160 mg/kg/day q6h, 24 h
  Bacterial Load (average): 4.10
A. baumannii; 240 mg/kg/day q6h, 24 h
  Bacterial Load (average): 3.37
A. baumannii; 360 mg/kg/day q6h, 24 h
  Bacterial Load (average): 3.09
